Target: 5-hydroxytryptamine receptor 2A (Rattus norvegicus, UniProt P14842)
Assay: Binding affinity against rat brain 5-hydroxytryptamine 2A receptor

5-hydroxytryptamine receptor 2A, sequence (P14842 whole entry): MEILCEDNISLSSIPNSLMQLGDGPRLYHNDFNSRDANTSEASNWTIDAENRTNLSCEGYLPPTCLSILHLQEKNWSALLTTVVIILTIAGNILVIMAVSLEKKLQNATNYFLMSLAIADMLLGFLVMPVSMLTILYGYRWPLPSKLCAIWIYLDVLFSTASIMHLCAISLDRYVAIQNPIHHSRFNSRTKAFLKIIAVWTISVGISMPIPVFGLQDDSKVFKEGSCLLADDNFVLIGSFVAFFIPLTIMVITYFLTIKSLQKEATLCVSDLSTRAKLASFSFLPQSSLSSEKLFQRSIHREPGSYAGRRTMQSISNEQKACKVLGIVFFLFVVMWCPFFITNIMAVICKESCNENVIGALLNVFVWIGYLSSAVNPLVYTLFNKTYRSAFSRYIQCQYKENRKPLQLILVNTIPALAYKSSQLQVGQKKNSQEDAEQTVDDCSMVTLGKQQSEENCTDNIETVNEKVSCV

Ki | SMILES
> 0.7 µM | Cc1ccc2c3c(c(=O)oc2c1)CN(Cc1ccccc1)CC3

Target: D(3) dopamine receptor (Homo sapiens, UniProt P35462)
Assay: biochemical
Description: Ability to displace [3H]spiperone from human cloned Dopamine receptor D3 expressed in CHO K-1 cells in vitro.

D(3) dopamine receptor, sequence (P35462 whole entry): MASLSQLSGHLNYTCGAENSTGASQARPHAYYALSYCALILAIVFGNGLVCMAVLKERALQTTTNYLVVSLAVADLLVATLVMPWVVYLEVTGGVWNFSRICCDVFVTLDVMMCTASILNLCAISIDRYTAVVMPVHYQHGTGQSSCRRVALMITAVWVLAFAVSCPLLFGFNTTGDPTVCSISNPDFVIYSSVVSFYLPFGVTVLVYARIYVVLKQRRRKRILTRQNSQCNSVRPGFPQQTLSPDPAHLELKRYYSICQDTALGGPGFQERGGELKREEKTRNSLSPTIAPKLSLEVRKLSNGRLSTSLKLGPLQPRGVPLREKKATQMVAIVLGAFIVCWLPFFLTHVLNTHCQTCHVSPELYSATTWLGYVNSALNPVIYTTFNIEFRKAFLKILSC

Ki | SMILES
0.548 µM | COc1ccc2c3c(c(=O)oc2c1)CN(Cc1ccc(F)cc1)CC3
2.21 µM | Cc1ccc2c3c(c(=O)oc2c1)CN(Cc1ccc(F)cc1)CC3
> 3 µM | COc1ccc2c3c(c(=O)oc2c1)CN(Cc1ccc([N+](=O)[O-])cc1)CC3
0.317 µM | O=c1oc2cc(O)ccc2c2c1CN(Cc1ccc(Cl)cc1)CC2
2.78 µM | COc1ccc2c3c(c(=O)oc2c1)CN(Cc1ccc(Cl)cc1)CC3

Continued, compound first:

SMILES | Ki
COc1cc2oc(=O)c3c(c2cc1OC)CCN(Cc1ccc(Cl)cc1)C3 | > 3 µM
COc1ccc2c3c(c(=O)oc2c1OC)CN(Cc1ccccc1)CC3 | 1.3 µM

Target: T1, Adrenergic receptor alpha-2 (Rattus norvegicus, UniProt P22086+P19328+P22909)
T1 sequence (P22086 whole entry): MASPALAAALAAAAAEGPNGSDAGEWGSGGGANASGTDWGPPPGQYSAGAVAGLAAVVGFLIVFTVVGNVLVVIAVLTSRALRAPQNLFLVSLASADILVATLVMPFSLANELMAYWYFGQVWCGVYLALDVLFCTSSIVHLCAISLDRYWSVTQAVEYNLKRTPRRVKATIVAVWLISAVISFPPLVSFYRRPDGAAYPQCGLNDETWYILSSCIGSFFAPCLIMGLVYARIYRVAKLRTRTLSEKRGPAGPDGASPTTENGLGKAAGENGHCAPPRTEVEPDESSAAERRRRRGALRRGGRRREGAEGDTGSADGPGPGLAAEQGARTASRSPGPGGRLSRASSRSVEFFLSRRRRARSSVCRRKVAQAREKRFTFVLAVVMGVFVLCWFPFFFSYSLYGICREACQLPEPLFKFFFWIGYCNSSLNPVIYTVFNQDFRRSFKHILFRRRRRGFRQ
T1 sequence (P19328 whole entry): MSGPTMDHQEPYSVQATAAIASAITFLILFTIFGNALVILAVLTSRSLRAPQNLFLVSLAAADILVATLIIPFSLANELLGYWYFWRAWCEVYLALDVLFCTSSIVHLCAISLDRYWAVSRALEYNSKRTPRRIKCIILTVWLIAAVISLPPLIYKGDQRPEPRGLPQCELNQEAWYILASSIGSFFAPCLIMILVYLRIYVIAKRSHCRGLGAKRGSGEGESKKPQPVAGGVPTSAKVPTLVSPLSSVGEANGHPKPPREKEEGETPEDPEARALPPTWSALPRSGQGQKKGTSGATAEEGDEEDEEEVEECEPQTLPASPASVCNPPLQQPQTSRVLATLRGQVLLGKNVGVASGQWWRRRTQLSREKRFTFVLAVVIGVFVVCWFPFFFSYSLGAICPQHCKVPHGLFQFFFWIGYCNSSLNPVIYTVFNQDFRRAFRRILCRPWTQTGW
T1 sequence (P22909 whole entry): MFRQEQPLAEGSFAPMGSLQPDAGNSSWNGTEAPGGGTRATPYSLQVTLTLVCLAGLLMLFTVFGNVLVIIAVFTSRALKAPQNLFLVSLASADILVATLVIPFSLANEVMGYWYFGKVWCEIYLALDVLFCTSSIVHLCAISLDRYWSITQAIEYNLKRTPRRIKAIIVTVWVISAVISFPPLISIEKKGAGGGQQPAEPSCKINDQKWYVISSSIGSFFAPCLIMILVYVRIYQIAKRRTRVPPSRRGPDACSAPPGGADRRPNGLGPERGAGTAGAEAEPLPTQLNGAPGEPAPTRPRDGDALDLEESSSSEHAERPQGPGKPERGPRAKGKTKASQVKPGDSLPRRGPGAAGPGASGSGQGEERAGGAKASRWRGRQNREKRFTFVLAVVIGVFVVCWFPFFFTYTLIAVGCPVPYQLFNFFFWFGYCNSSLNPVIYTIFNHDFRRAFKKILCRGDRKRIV
Assay: Binding affinity against rat brain Alpha-2 adrenergic receptor

Ki | SMILES
> 0.7 µM | Cc1ccc2c3c(c(=O)oc2c1)CN(Cc1ccccc1)CC3

Target: T2, Adrenergic receptor alpha-1 (Rattus norvegicus, UniProt P15823+P23944+P43140)
T2 sequence (P15823 whole entry): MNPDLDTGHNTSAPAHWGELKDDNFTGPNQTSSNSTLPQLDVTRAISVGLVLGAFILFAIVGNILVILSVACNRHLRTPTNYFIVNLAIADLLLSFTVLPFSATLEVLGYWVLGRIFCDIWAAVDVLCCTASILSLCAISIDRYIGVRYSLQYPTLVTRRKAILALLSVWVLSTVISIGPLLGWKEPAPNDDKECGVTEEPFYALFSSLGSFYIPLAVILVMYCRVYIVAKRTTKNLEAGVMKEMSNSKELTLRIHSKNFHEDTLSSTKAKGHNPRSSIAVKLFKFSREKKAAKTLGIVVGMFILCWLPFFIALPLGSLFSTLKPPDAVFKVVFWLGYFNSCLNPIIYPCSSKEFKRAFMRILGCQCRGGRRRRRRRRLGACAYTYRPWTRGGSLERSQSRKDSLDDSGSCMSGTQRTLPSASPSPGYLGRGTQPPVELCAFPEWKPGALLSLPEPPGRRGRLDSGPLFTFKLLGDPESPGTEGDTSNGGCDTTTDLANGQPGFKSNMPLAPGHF
T2 sequence (P23944 whole entry): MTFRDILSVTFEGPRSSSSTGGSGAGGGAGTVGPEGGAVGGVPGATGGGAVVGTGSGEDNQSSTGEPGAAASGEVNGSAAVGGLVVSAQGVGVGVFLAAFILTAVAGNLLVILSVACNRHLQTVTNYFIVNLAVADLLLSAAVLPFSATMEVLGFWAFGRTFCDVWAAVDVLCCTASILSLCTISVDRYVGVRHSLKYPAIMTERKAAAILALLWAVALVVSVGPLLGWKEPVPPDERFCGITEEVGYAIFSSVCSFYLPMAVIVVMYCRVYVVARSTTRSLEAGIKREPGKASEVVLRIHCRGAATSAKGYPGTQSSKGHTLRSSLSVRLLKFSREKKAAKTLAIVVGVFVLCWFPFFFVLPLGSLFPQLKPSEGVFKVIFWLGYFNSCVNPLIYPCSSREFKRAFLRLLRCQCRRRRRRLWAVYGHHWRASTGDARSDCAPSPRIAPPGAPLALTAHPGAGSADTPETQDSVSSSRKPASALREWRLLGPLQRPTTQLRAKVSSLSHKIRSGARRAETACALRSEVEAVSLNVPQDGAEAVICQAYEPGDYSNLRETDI
T2 sequence (P43140 whole entry): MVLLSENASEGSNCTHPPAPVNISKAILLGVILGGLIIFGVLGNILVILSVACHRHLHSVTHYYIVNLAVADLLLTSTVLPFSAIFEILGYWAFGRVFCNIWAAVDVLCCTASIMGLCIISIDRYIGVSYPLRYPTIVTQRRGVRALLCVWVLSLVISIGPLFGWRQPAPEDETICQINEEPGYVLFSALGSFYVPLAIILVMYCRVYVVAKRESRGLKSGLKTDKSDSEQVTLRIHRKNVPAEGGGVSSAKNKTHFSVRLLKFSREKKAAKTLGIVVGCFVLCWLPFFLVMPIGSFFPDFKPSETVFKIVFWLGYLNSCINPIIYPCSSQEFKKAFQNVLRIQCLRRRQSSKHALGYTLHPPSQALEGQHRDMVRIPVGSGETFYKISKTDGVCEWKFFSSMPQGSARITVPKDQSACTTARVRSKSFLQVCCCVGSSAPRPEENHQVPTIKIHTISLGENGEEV
Assay: Binding affinity against rat brain Alpha-1 adrenergic receptor

Ki | SMILES
> 0.7 µM | Cc1ccc2c3c(c(=O)oc2c1)CN(Cc1ccccc1)CC3

Target: T3, D(4) dopamine receptor (Homo sapiens, UniProt P21917)
T3 sequence (P21917 whole entry): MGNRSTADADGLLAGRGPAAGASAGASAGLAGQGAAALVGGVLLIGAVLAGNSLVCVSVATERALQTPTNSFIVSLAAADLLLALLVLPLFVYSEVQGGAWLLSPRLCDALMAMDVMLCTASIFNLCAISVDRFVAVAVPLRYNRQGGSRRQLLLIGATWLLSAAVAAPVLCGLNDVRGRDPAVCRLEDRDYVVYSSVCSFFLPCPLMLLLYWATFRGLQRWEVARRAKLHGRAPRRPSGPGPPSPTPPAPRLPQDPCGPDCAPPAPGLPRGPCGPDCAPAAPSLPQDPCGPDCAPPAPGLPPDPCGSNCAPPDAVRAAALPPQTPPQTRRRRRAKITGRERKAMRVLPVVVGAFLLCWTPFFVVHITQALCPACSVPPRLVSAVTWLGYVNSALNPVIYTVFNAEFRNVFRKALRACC
Assay: biochemical
Description: Ability to displace [3H]spiperone from cloned human Dopamine receptor D4 expressed in CHO K-1 cells in vitro

Ki | SMILES
> 3.3 µM | COc1ccc2c3c(c(=O)oc2c1)CCN(Cc1ccccc1)C3
0.011 µM | Cc1ccc2c3c(c(=O)oc2c1)CN(Cc1ccc(Cl)cc1)CC3
0.0043 µM | COc1ccc2c3c(c(=O)oc2c1)CN(Cc1ccc(F)cc1)CC3
0.0075 µM | Cc1ccc2c3c(c(=O)oc2c1)CN(Cc1ccc(F)cc1)CC3
0.017 µM | COc1ccc2c3c(c(=O)oc2c1)CN(Cc1cccc(Cl)c1)CC3
0.0024 µM | O=c1oc2cc(O)ccc2c2c1CN(Cc1ccc(Cl)cc1)CC2
0.0087 µM | COc1ccc2c3c(c(=O)oc2c1)CN(Cc1ccc(Cl)cc1)CC3

More lines, now with the values behind:

SMILES | Ki
COc1ccc2c3c(c(=O)oc2c1)CN(C(=O)c1ccccc1)CC3 | 0.42 µM
Cc1cc(O)c2c3c(c(=O)oc2c1)CN(Cc1ccccc1)CC3 | 0.145 µM
COc1ccc2c3c(c(=O)oc2c1)CN(CCc1ccccc1)CC3 | 0.0079 µM
COc1ccc2c3c(c(=O)oc2c1OC)CN(Cc1ccccc1)CC3 | 0.016 µM
COc1ccc2c3c(c(=O)oc2c1)CN(c1ccccc1)CC3 | > 3.3 µM

Target: T4, D(4) dopamine receptor (Homo sapiens) (UniProt P21917)
T4 sequence (whole entry): T3 sequence (P21917 whole entry)
Assay: Inhibition of mitogenic [3H]thymidine uptake in CHO 10001 cells expressing Dopamine receptor D4
Assay type: functional, cell-based

Intrinsic activity | SMILES
35.2% | COc1ccc2c3c(c(=O)oc2c1)CN(Cc1ccc(F)cc1)CC3
0% | COc1ccc2c3c(c(=O)oc2c1)CN(Cc1ccc(C(F)(F)F)cc1)CC3
0% | Cc1ccc2c3c(c(=O)oc2c1)CN(Cc1ccc(F)cc1)CC3
30.7% | COc1ccc2c3c(c(=O)oc2c1)CN(Cc1cccc(Cl)c1)CC3
10% | COc1ccc2c3c(c(=O)oc2c1)CN(Cc1ccc(C)cc1)CC3
25.2% | COc1ccc2c3c(c(=O)oc2c1)CN(Cc1ccc([N+](=O)[O-])cc1)CC3
23.2% | O=c1oc2cc(O)ccc2c2c1CN(Cc1ccc(Cl)cc1)CC2
26.8% | COc1ccc2c3c(c(=O)oc2c1)CN(Cc1ccc(Cl)cc1)CC3
23.2% | COc1ccc2c3c(c(=O)oc2c1)CN(Cc1ccccc1)CC3

Second part, the compound before the results:

SMILES | Intrinsic activity
COc1cc2oc(=O)c3c(c2cc1OC)CCN(Cc1ccc(Cl)cc1)C3 | 21.2%
Cc1ccc2c3c(c(=O)oc2c1)CN(Cc1ccccc1)CC3 | 12.4%

Target: T5, 5-hydroxytryptamine receptor 1A (Rattus norvegicus, UniProt P19327)
T5 sequence (P19327 whole entry): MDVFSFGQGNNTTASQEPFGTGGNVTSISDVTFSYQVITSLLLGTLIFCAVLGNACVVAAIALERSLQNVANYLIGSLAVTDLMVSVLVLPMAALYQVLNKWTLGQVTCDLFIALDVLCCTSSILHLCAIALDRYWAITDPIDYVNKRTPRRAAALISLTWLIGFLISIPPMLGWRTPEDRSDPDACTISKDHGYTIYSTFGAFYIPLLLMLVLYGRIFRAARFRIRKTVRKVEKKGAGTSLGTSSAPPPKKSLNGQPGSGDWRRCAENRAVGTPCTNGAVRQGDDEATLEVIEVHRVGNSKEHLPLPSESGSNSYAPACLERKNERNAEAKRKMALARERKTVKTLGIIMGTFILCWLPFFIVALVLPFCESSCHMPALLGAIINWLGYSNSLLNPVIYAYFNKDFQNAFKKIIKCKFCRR
Assay: Binding affinity against rat brain 5-hydroxytryptamine 1A receptor

Ki | SMILES
> 0.7 µM | Cc1ccc2c3c(c(=O)oc2c1)CN(Cc1ccccc1)CC3
